# In patent US7727949B2, “Cleaning agent for thermostatic chambers” (Wako Pure Chemical Industries, Ltd., priority 2005, dated 2010):
# Legend:
# Format in all cases: cell-based
# [1] = test system: Aspergillus niger (NBRC6341); assay: Study of antimicrobial activity (MIC, agar plate medium)
# Procedure: (§1) In a sterilized petri dish having a diameter of 90 mm, an aqueous solution which was obtained by diluting each of agents with distilled water such that a concentration of the agent become each predetermined concentrations when the solution is prepared to a total volume of 20 mL, and then sterilized water was added into the petri dish such that a total volume of sterilized water and the agent aqueous solution become 2 mL. Further, 18 mL of nutrient agar medium, which was sterilized with high pressure steam and preserved at 50° C.±2° C., was added into the petri dish, and it was solidified to obtain an agar plate medium.
# (§2) The individual test microorganism, which was preliminarily cultured in bouillon medium in advance until 1×10^8 microorganisms/mL, was diluted with sterilized physiological saline for 100 times (to 1×10^6 microorganisms/mL). Next, prepared solution of the test microorganism was smeared with a platinum loop on the surface of the agar plate medium prepared in (2), and the medium was cultured at 35° C.±2° C., for 24 hours.
# (§3) After the cultivation, confirming the presence or not of growth of the microorganism on the surface of the medium was conducted, a minimum concentration of the agent, where growth of the microorganisms cannot be recognized, was determined as the minimum inhibitory concentration (MIC, μg/mL) of the agent.
# [2] = test system: Bacillus subtilis (NBRC13719); assay: as above
# Procedure: as §1, §2, §3
# [3] = test system: Chaetomium globosum (NBRC6347); assay: as above
# Procedure: as §1, §2, §3
# [4] = test system: Cladosporium cladosporioides (NBRC6348); assay: as above
# Procedure: as §1, §2, §3
# [5] = test system: Escherichia coli (NBRC3972); assay: as above
# Procedure: as §1, §2, §3
# [6] = test system: Penicillium citrinum (NBRC6352); assay: as above
# Procedure: as §1, §2, §3
# [7] = test system: Pseudonas aeruginosa (NBRC12689); assay: as above
# Procedure: as §1, §2, §3
# [8] = test system: Staphylococcus aureus (NBRC12732); assay: as above
# Procedure: as §1, §2, §3
# [9] = test system: Trichoderma viride (NBRC31831); assay: as above
# Procedure: as §1, §2, §3
# [10] = test system: Bacillus subtilis (NBRC13719); assay: Study of germicidal activity of agents in the presence of proteins; design: key: a case where growth of the microorganism on the surface of the medium was recognized is shown by +; a case where growth of the microorganism on the surface of the medium was not recognized is shown by −; conditions: agent 50 μg/mL
# Procedure: (§4) Didecyldimethylammonium adipate (DDAA), N-bis(3-aminopropyl)dodecylamine (TAA) and benzalkonium chloride were respectively prepared such that a concentration thereof is 1 w/w %.
# (§5) GOT solution: GOT Substrate-Enzyme solution and GOT•L2α-KG solution which were components of L type Wako GOT•J2 kit (produced by Wako Pure Chemical Industries, Ltd.) were prepared with distilled water so as to become a 0.1 w/w % aqueous solution.
# (§6) GPT solution: GOT Substrate-Enzyme solution and GOT•L2α-KG solution which were components of L type Wako GPT•J2 kit (produced by Wako Pure Chemical Industries, Ltd.) were prepared with distilled water so as to become a 0.1 w/w % aqueous solution.
# (§7) Serum: Control Serum II Wako (produced by Wako Pure Chemical Industries, Ltd.) was prepared with distilled water so as to become a 0.1 w/w % aqueous solution.
# (§8) i) The individual test microorganism, which was preliminarily cultured in bouillon medium in advance until 1×10^8 microorganisms/mL, were diluted with sterilized physiological saline for 100 times (to 1×10^6 microorganisms/mL) to obtain a solution of test microorganisms. ii) Into a 20 mL test tube made of glass which was preliminarily sterilized by dry-heat sterilization, the agent aqueous solution, the reagent solution and the solution of test microorganisms as prepared in the above described i) were added such that a final concentration of the agent become 50 μg/mL, a final concentration of the reagent become 100 μg/mL, and the number of test microorganisms become 1×10^5 microorganisms/mL, respectively, when a total volume thereof is prepared to be 10 mL. And then, the tube was sufficiently stirred. iii) After a lapse of predetermined times (5 min, 10 min, and 15 min), the solution as obtained in the above described ii) was smeared with a platinum loop on the surface of the nutrient agar plate medium preliminarily having been prepared, and the medium was cultured at 35° C.±2° C. for 24 hours. iv) After the cultivation, confirming the presence or not of the growth of the microorganisms on the surface of the medium was conducted. (3) Result
# (§9) In Table 3, a case where growth of the microorganism on the surface of the medium was recognized is shown by +, and a case where growth of the microorganism on the surface of the medium was not recognized is shown by −, respectively.
# [11] = test system: Escherichia coli (NBRC3972); assay: as above; design: key: a case where growth of the microorganism on the surface of the medium was recognized is shown by +; a case where growth of the microorganism on the surface of the medium was not recognized is shown by −; conditions: agent 50 μg/mL
# Procedure: as §4, §5, §6, §7, §8, §9
# [12] = test system: Pseudonas aeruginosa (NBRC12689); assay: as above; design: key to growth of the microorganism P.a: a case where growth of the microorganism on the surface of the medium was recognized is shown by +; a case where growth of the microorganism on the surface of the medium was not recognized is shown by −; conditions: for growth of the microorganism P.a: agent 50 μg/mL
# Procedure: as §4, §5, §6, §7, §8, §9
# [13] = test system: Staphylococcus aureus (NBRC12732); assay: as above; design: key to growth of the microorganism S.a: a case where growth of the microorganism on the surface of the medium was recognized is shown by +; a case where growth of the microorganism on the surface of the medium was not recognized is shown by −; conditions: for growth of the microorganism S.a: agent 50 μg/mL
# Procedure: as §4, §5, §6, §7, §8, §9
# [14] = data are not shown, effect does not change in the presence of protein
compound,measurement,setting,value
"CCCCCCCCCCCCN(CCCN)CCCN [TAA, N-bis(3-aminopropyl)dodecylamine]",Minimum Inhibitory Concentration A.n,[1],200 µg/mL
same,Minimum Inhibitory Concentration B.s,[2],3.125 µg/mL
same,Minimum Inhibitory Concentration C.g,[3],100 µg/mL
same,Minimum Inhibitory Concentration Cl.cl,[4],25 µg/mL
same,Minimum Inhibitory Concentration E.c,[5],50 µg/mL
same,Minimum Inhibitory Concentration P.c,[6],200 µg/mL
same,Minimum Inhibitory Concentration P.a,[7],100 µg/mL
same,Minimum Inhibitory Concentration S.a,[8],3.125 µg/mL
same,Minimum Inhibitory Concentration T.v,[9],50 µg/mL
same,growth of the microorganism B.s,"[10]; GOT, 5 min",+
same,growth of the microorganism B.s,"[10]; GOT, 10 min",+
same,growth of the microorganism B.s,"[10]; GOT, 15 min",+
same,growth of the microorganism B.s,"[10]; GPT, 5 min",+
same,growth of the microorganism B.s,"[10]; GPT, 10 min",+
same,growth of the microorganism B.s,"[10]; GPT, 15 min",+
same,growth of the microorganism B.s,"[10]; Serum, 5 min",+
same,growth of the microorganism B.s,"[10]; Serum, 10 min",+
same,growth of the microorganism B.s,"[10]; Serum, 15 min",+
same,growth of the microorganism E.c,"[11]; GOT, 5 min",+
same,growth of the microorganism E.c,"[11]; GOT, 10 min",+
same,growth of the microorganism E.c,"[11]; GOT, 15 min",+
same,growth of the microorganism E.c,"[11]; GPT, 5 min",+
same,growth of the microorganism E.c,"[11]; GPT, 10 min",+
same,growth of the microorganism E.c,"[11]; GPT, 15 min",+
same,growth of the microorganism E.c,"[11]; Serum, 5 min",+
same,growth of the microorganism E.c,"[11]; Serum, 10 min",+
same,growth of the microorganism E.c,"[11]; Serum, 15 min",+
same,growth of the microorganism P.a,"[12]; GOT, 5 min",−
same,growth of the microorganism P.a,"[12]; GOT, 10 min",−
same,growth of the microorganism P.a,"[12]; GOT, 15 min",−
same,growth of the microorganism P.a,"[12]; GPT, 5 min",−
same,growth of the microorganism P.a,"[12]; GPT, 10 min",−
same,growth of the microorganism P.a,"[12]; GPT, 15 min",−
same,growth of the microorganism P.a,"[12]; Serum, 5 min",−
same,growth of the microorganism P.a,"[12]; Serum, 10 min",−
same,growth of the microorganism P.a,"[12]; Serum, 15 min",−
same,germicidal activity to Pseudonas aeruginous,[12]; [14],high germicidal activity
same,growth of the microorganism S.a,"[13]; GOT, 5 min",−
same,growth of the microorganism S.a,"[13]; GOT, 10 min",−
same,growth of the microorganism S.a,"[13]; GOT, 15 min",−
same,growth of the microorganism S.a,"[13]; GPT, 5 min",−
same,growth of the microorganism S.a,"[13]; GPT, 10 min",−
same,growth of the microorganism S.a,"[13]; GPT, 15 min",−
same,growth of the microorganism S.a,"[13]; Serum, 5 min",−
same,growth of the microorganism S.a,"[13]; Serum, 10 min",−
same,growth of the microorganism S.a,"[13]; Serum, 15 min",−
same,germicidal activity to Staphylococcus aureus,[13]; [14],high germicidal activity
